Data on nine molecules can be found in ChEMBL document CHEMBL2331116, “Microbial transformation of acetyl-11-keto-β-boswellic acid and their inhibitory activity on LPS-induced NO production” (Bioorg Med Chem Lett, 2013).

By IC50 is commonly meant the concentration at which inhibition is half-maximal.

A short description of series [1]: Cytotoxicity against mouse RAW264.7 cells assessed as cell viability at 100 uM after 24 hrs by MTT assay relative to control. In kind it is cell-based. To be noted: read-out: Activity.
The test system of another series is RAW264.7. Nature of the series: Antiinflammatory activity in mouse RAW264.7 cells assessed as inhibition of LPS-induced NO production after 24 hrs. In kind it is functional, cell-based. The conditions noted are these: RAW264.7, 24 h.

On to `CC(=O)O[C@@H]1CC[C@@]2(C)[C@@H](C[C@H](O)[C@]3(C)[C@@H]2C(=O)C=C2[C@@H]4[C@@H](C)[C@H](C)C[C@H](O)[C@]4(C)CC[C@]23C)[C@@]1(C)C(=O)O`, for which the viability at 24 h, 100 µM in series [1] was 89.8%. For the same molecule, in the series on RAW264.7, the IC50 was determined as 76.8 µM.
In the same order, the values of `CC(=O)O[C@@H]1CC[C@@]2(C)[C@@H](C[C@H](O)[C@]3(C)[C@@H]2C(=O)C=C2[C@@H]4[C@@H](C)[C@H](C)CC[C@]4(C)CC[C@]23C)[C@@]1(C)C(=O)O` are 84.2% and 1.5 µM.
With `CC(=O)O[C@@H]1CC[C@@]2(C)[C@@H](CC[C@]3(C)[C@@H]2C(=O)C=C2[C@@H]4[C@@H](C)[C@H](C)[C@@H](O)C[C@]4(C)C[C@H](O)[C@]23C)[C@@]1(C)C(=O)O`, the viability at 24 h, 100 µM in series [1] turned out to be 134%. Also, the IC50 in the series on RAW264.7 is above 100 µM.
In the same order, the values of `CC(=O)O[C@@H]1CC[C@@]2(C)[C@@H](C[C@H](O)[C@]3(C)[C@@H]2C(=O)C=C2[C@@H]4[C@@H](C)[C@H](C)CC[C@]4(C)[C@H](O)C[C@]23C)[C@@]1(C)C(=O)O` are 98.1% and 10.6 µM.
In the same order, the values of `CC(=O)O[C@@H]1CC[C@@]2(C)[C@@H](C[C@H](O)[C@]3(C)[C@@H]2C(=O)C=C2[C@@H]4[C@@H](C)[C@H](C)[C@@H](O)C[C@]4(C)CC[C@]23C)[C@@]1(C)C(=O)O` are 104% and 87.7 µM.
In the same order, the values of `CC(=O)O[C@@H]1CC[C@@]2(C)[C@@H](CC[C@]3(C)[C@@H]2C(=O)C=C2[C@@H]4[C@@H](C)[C@H](C)CC[C@]4(C)CC[C@]23C)[C@@]1(C)C(=O)O` [AKBA] are 81.2% and 15.6 µM.
On to `CC(=O)O[C@@H]1CC[C@@]2(C)[C@@H](C[C@H](O)[C@]3(C)[C@@H]2C(=O)C=C2[C@@H]4[C@@H](C)[C@H](C)[C@@H](O)C[C@]4(C)C[C@H](O)[C@]23C)[C@@]1(C)C(=O)O`, for which the viability at 24 h, 100 µM in series [1] was determined as 103%. The IC50 in the series on RAW264.7 is above 100 µM.
As to `CN(C)c1ccc(O)c2c1C[C@H]1C[C@H]3[C@H](N(C)C)C(O)=C(C(N)=O)C(=O)[C@@]3(O)C(O)=C1C2=O` [MINOCYCLINE], the viability at 24 h, 100 µM in series [1] stood at 100%.
As for `CC(=O)O[C@@H]1CC[C@@]2(C)[C@@H](C[C@H](O)[C@]3(C)[C@@H]2C(=O)C=C2[C@@H]4[C@@H](C)[C@H](C)CC[C@]4(C)C[C@H](O)[C@]23C)[C@@]1(C)C(=O)O`, in series [1], the viability at 24 h, 100 µM is 108%. In the series with RAW264.7, the IC50 was above 100 µM.
